How the values were obtained:
[1] = system: herpes simplex type I (VPG-I/Leningrad/248/88); test: Activity on herpes simplex virus: cytopathic action of the virus on Vero cells; assay type: cell-based; conditions: 36 hours; for number of cells in 100 fields (unchanged cells): cell control 12000
Description: The antiviral activity was studied relative to the virus herpes simplex type I (VPG-I/Leningrad/248/88) by a standard method. The virus was grown on a reinoculated Vero cell culture obtained from the cell culture bank of the Institute of Cytology of the Russian Academy of Sciences.
To cells grown on medium RPMI-1640 with 10% calf serum and placed in the wells of a 96-well plate, the virus was added to give a final concentration of 10 particles/ml and the claimed compounds dissolved in DMSO were added to give a final concentrations of 100, 10, and 1 mg/l. We used 5 individual wells for every concentration tested. The plate was incubated for 60 min at 38° C. in a CO2 incubator. After incubation the virus was removed and new medium was added that contained the claimed compounds in the test concentrations.
The results were evaluated according to the existence of a cytopathic action of the virus on the cells after 36 hours of incubation at 38° C. in the CO2 incubator.
The following controls were used in the experiment:
3. Control of antiviral activity of an antiviral preparation—acylcovir.
To access the cytopathic effect of the virus, we counted the number of unchanged cells in 100 fields formed by a specialized grid on the eyepiece of the inversion microscope.

[2] = system: herpes simplex type I (VPG-I/Leningrad/248/88); test: as above; assay type: cell-based; conditions: 50 mg/l, 36 hours
[3] = system: primary culture of human lymphocytes; test: Interferon-inducing activity in primary culture of human lymphocytes (immunoenzyme IFN determination); assay type: cell-based; set-up: unit of the concentration uncertain; conditions: 24 hours of incubation
Description: Interferon synthesis induction by the claimed preparations was conducted on a primary culture of human lymphocytes (the cells in the human body are the main producers of interferon). To obtain a culture of the lymphocytes we used fresh blood (12 hours after collection) from healthy […] (not from the second group).
The lymphocyte concentration was determined after staining with methyl blue and the number of cells in the Goryaev chamber was calculated. […] The final concentration of the lymphocytes in the induction mixture was 3·10^6 cells/ml. The following controls were processed in parallel with the test samples:
The control and the experimental samples were incubated for 24 hours at 37° C. Following incubation the samples were centrifuged at 2000 g to settle out the cellular elements and the INF-containing supernatant was taken from the samples and analyzed for INF content. The cell residue was resuspended in the same volume of nutrient medium, stained with a vital dye—trypan blue—and the number of cells in the Goryaev chamber was calculated (as described above) to determine the cytotoxic activity of the preparations.
For the quantitative determination of INF in the control and experimental samples we used the ProCon IF2 Plus immunoenzyme test system sold by TOO Proteinovyi Kontur. To determine the quantity of interferon s in the sample we used a solid-phase immunoenzyme method utilizing horseradish peroxidase as the enzyme indicator. The activity of the bound peroxidase was measured using an automated photometer at a wavelength of 450 nm for the microplanchets with a microprocessor. […] On the basis of the results obtained we plotted a calibration curve that allowed us to obtain data expressed in International Units (IU) from the microprocessor of the automated photometer. The results of the analysis are expressed in IU of activity of INF per ml in the given induction system containing 3·10^6 lymphocytes/ml. Every experimental and control point was studied in 4 parallel runs.
The results obtained were analyzed statistically using the t-test and the confidence interval at p=0.05 was calculated. Analysis of the convergence of the results of the parallel tests were performed.

C. trachomatis D323 = test: Activity on Chlamydia trachomatis in McCoy and L929 cell cultures; assay type: cell-based; conditions: 100 mg/l, 48 hours
Description: The antimicrobial activity of the claimed compounds was studied on C. trachomatis […]-a standard strain from the collection of the Department of Microbiology of the Pavlov St.-Petersburg State University. This strain was isolated from a patient with […] urethritis. […] In the work reported here we used McCoy and L929 cell cultures obtained from the Institute of Cytology of the Russian Academy of Sciences. The cells were grown in flasks of neutral glass in RPMI-1640 medium with an addition of 10% fetal calf serum. The experiment was placed in glass (toxicity-free) flat-bottomed flasks and covered with glass. The cells were introduced into the medium in a final concentration of 1·10 cells/ml. […] The sample was centrifuged at 2400 g for 60 min at room temperature and incubated at 37° C. for 2 hours. […] A parallel series of samples was run using medium without the cycloheximide in order to avoid its influence on the test substances. The samples were incubated for 48 hours in a CO2 incubator. […] The results were evaluated from the detection of chlamydia cytoplasmatic inclusion by an immunoenzyme method (MicroTrac Chlamydia trachomatis Direct Specimen Test) and from chlamydia antigens using CylaMonoScreen (Russian-British Joint Venture, 66 Regent's Park Road, London NW 1 7SX).

non-linebred white mice = test: Acute toxicity (LD50) in mice; assay type: in vivo; conditions: mice 18-20 g; by mouth or intravenously; observation period 14 days
Description: Acute toxicity was determined on non-linebred white mice weighing 18-20 g. Emulsions of certain of the claimed compounds were prepared in a range of concentrations: 1500, 700, 500, 100, 20 and 5 μg/kg. Five animals were used to study each specific concentration of a compound. The preparation was administered once a day by mouth or intravenously. The observation period was 14 days On days 1, 8 and 15 the animals in every group were weighed. For a control we used animals who received the emulsion without the test compounds.
All animals, both that died in the course of the experiment and those that survived to the end of the experiment, were opened to allow macroscopic examination of internal organs.
In the course of the experiment no loss of weight was observed or any change in behavior or external appearance, nor was there any loss of life. Based on the results of the macroscopic examination of internal organs of the animals in the test and the control groups, no pathological findings were made (Table 7).

Q: `Oc1nc(S)nc2c1C(c1ccc(Cl)cc1)c1c(O)nc(S)nc1O2` [VIII] was tested. Which “percent protection of the cells against the virus compared to the cell culture control” value (“percent protection … to the cell culture control” for short) ([1]; 10 mg/l) did it give?
A: The value was 20%.

Q: What about the “number of cells in 100 fields (unchanged cells)” value (“number … (unchanged cells)” for short) ([1]; 10 mg/l) of the same molecule?
A: The value was 2400.

Q: And the “percent protection … to the cell culture control” value ([1]; 100 mg/l)?
A: Its value is 90%.

Q: And the “number … (unchanged cells)” value ([1]; 100 mg/l)?
A: The value was 10800.

Q: What about the “percent protection … to the cell culture control” value [2] of the same molecule?
A: The value was 50%.

Q: What about the “number … (unchanged cells)” value ([2]; cell control 12000) of the same molecule?
A: Its value is 6000.

Q: And the “Interferon-inducing activity of the drug; content of INF in induction mixture” value (shortened to “Interferon-inducing activity of the drug”) ([3]; 1 (unit uncertain))?
A: The value was 1.5 ± 1.0 IU/3 · 10^4 lymp/ml.

Q: What about the “Interferon-inducing activity of the drug” value ([3]; 10 (unit uncertain)) of the same molecule?
A: Its value is 23.2 ± 1.5 IU/3 · 10^4 lymp/ml.

Q: And the “Interferon-inducing activity of the drug” value ([3]; 100 (unit uncertain))?
A: Its value is 70.5 ± 2.5 IU/3 · 10^4 lymp/ml.

Q: What about the “percent protection of the cells against infection” value (C. trachomatis D323) of the same molecule?
A: Its value is 60%.

Q: What about the “number … (unchanged cells)” value (C. trachomatis D323; cell control 8000, infected cell control 6400) of the same molecule?
A: The value was 7360.

Q: What about the LD50 (non-linebred white mice) of the same molecule?
A: Its LD50 is 1800 mg/kg.

Reference: US6340755B1, “5H-Pyrano[2,3-d: 6,5-d']dipyrimidine derivatives having an antibacterial, antiviral and immuno-modulating activity” (Natural Drug Sciences LLC, priority 2000, dated 2002)
